This note sets out measurements from patent US20260258050A1, “IMMUNOMODULATOR” (HITGEN INC., priority 2023, published 2026).

This assay concerns the target T1, Human IL-17A (Homo sapiens, UniProt Q16552).
T1 sequence (Q16552 20-155 limits assumed): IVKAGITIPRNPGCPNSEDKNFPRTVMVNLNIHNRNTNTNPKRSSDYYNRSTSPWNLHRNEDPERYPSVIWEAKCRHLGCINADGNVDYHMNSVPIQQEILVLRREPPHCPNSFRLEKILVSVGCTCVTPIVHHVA
The assay can be described thus: IL-17A enzyme-linked immunosorbent assay (competitive ELISA, IL-17A/IL-17Ra receptor-ligand binding). Further details: purchased Sino Biological Inc. 12047-H07B. As to conditions: human IL-17A coated plate, human IL-17Ra, read-out: IC50, inhibitory activity of compounds on human IL-17A. The procedure: Experimental Example 1 IL-17A Enzyme-Linked Immunosorbent Assay (ELISA)
The inhibitory effects of human IL-17A inhibitors on receptor-ligand binding were quantitatively determined by a competitive enzyme-linked immunosorbent assay (ELISA). The ELISA was performed through the following steps.
Human IL-17A (Sino Biological Inc., Cat #12047-H07B) was diluted with coating buffer (50 mM phosphate-buffered saline (PBS), pH 7.4) to give an IL-17A concentration of 0.2 μg/ml. 100 μL of the resulting solution was added to each well of a 96-well plate, and the plate was incubated at 37° C. for 30 min. In a blank group, 100 100 μL of the coating buffer was added instead of the IL-17A solution.
The plate was washed four times with 10 mM phosphate-buffered saline containing 0.05% Tween-20 (PBST, pH 7.4). 200 μL of PBST was used per well for each wash. After the final wash, the plate was tapped dry on absorbent paper.
Fresh 5% (w/v) skim milk solution was prepared before the experiment. For example, 5 g of skim milk powder (Bio-Rad, 170-6404) was completely dissolved in 100 mL of 10 mM PBST. 200 μL of the 5% (w/v) skim milk solution was added to each well, and the plate was incubated on a shaker at 25° C. for 30 min.
(S4) Preparation of 100× to-be-Tested Compound Solutions
During step (S3), the to-be-tested compound solutions were prepared, respectively. Each powdered compound was dissolved in dimethyl sulfoxide (DMSO) to reach a storage concentration of 10 mM. The to-be-tested compound solutions were then serially diluted four-fold with DMSO to obtain nine storage concentrations ranging from […].
(S6) Pre-incubation of IL-17A with to-be-tested compound solutions
89 μL of PBST and 1 μL of each of the to-be-tested compound solutions were added to each well and mixed. The plate was pre-incubated at 25° C. for 10 min. In the blank group and the control group, 1 μL of DMSO was added instead of the to-be-tested compound solutions.
(S7) Incubation with Human Interleukin-17 Receptor a (IL-17Ra)
10 μL of 16 nM human IL-17Ra (Sino Biological Inc., Cat #10895-H03H) was added, followed by incubation on a shaker at 25° C. for 30 min. The receptor solution was prepared in 10 mM PBST.
(S9) Incubation with Horseradish Peroxidase-Conjugated Antibody
100 μL of mouse anti-Fc tag horseradish peroxidase (HRP)-conjugated antibody (Sino Biological Inc., Cat #10702-MM01T-H) was added to each well. The plate was incubated on a shaker at 25° C. for 30 min. The antibody was diluted with 5% (w/v) skim milk solution at 1:5,000 (v/v).
100 μL of 3,3′,5,5′-tetramethylbenzidine (TMB) substrate solution (BD, Cat #555214) was added to each well. Substrate A and substrate B were freshly mixed at a volume ratio of 1:1 before use. The plate was incubated in the dark at 25° C. for 5-15 min.
(S12) Termination and Detection
The color reaction was terminated by addition of 2.5 M hydrochloric acid (HCl). Absorbance was measured at 450 nm using a BMG PHERStar microplate reader.
(S13) Calculation of Half-Maximal Inhibitory Concentration (IC50)
The relative percent residual activity at each compound concentration was calculated according to Equation 1. The IC50 value of each test compound was then calculated in GraphPad 6 using the equation for log(inhibitor) versus normalized response with variable slope, as shown in Equation 2.
relative percent residual activity (%)=[(absorbance of sample−absorbance of blank group)/(absorbance of control group−absorbance of blank group)]%. Equation 1: […]
The compounds prepared in the above examples were tested for IL-17A inhibitory activity according to the above method.
On the technique in general: An ELISA detects its analyte on a solid surface through an enzyme-linked reagent.

By IC50 is commonly meant the concentration at which inhibition is half-maximal. Turning to `Cc1[nH]nc2c1-c1cnc(NC(=O)[C@@H](NC(=O)c3ccnn3C(C)C)C(C3CC3)C3CC3)cc1CN(C(C)C(F)(F)F)C(=O)C2` (mixture of isomers) [compound 204], the IC50 was not above 50 nM.

Consider `Cc1[nH]nc2c1-c1cnc(NC(=O)[C@@H](NC(=O)c3ccnn3C(C)C)C(C3CC3)C3CC3)cc1CN(C(C)C(F)(F)F)CC2` (mixture of isomers) [compound 205], for which the IC50 was not above 50 nM.

`Cc1[nH]nc2c1-c1cnc(NC(=O)C(NC(=O)c3conc3C(C)C)C(C3CC3)C3CC3)cc1CN(C(C)C(F)(F)F)C(=O)C2` (racemic) [compound 225]: the IC50 is not above 50 nM.

In the case of `Cc1[nH]nc2c1-c1cnc(NC(=O)[C@@H](NC(=O)c3ccnn3CCCF)C(C3CC3)C3CC3)cc1CN(C(C)C(F)(F)F)C(=O)C2` (mixture of isomers) [compound 226], the IC50 was not above 50 nM.

As to `Cc1[nH]nc2c1-c1cc(F)c(NC(=O)[C@@H](NC(=O)c3conc3C(C)C)C(C3CC3)C3CC3)cc1CN(C(C)C(F)(F)F)C(=O)C2` (mixture of isomers) [compound 248], the IC50 is not above 50 nM.

With `Cc1[nH]nc2c1-c1cc(F)c(NC(=O)[C@@H](NC(=O)c3ccnn3CCCF)C(C3CC3)C3CC3)cc1CN(C(C)C(F)(F)F)C(=O)C2` (mixture of isomers) [compound 249], the IC50 was not above 50 nM.

In the case of `Cc1[nH]nc2c1-c1cc(F)c(NC(=O)[C@@H](NC(=O)/C(F)=C\C(C)C)C(C3CC3)C3CC3)cc1CN(C(C)C(F)(F)F)C(=O)C2` (mixture of isomers) [compound 250], the IC50 is not above 50 nM.

Turning to `Cc1[nH]nc2c1-c1cc(F)c(NC(=O)[C@@H](NC(=O)/C(F)=C\C3CC3)C(C3CC3)C3CC3)cc1CN(C(C)C(F)(F)F)C(=O)C2` (mixture of isomers) [compound 251], the IC50 is not above 50 nM.

Regarding `CC(C)=C(F)C(=O)N[C@H](C(=O)Nc1cc2c(cc1F)-c1c(n[nH]c1C)CC(=O)N(C(C)C(F)(F)F)C2)C(C1CC1)C1CC1` (mixture of isomers) [compound 252], the 50% inhibitory concentration (IC50) is not above 50 nM.

Regarding `C=C(F)C(=O)N[C@H](C(=O)Nc1cc2c(cc1F)-c1c(n[nH]c1C)CC(=O)N(C(C)C(F)(F)F)C2)C(C1CC1)C1CC1` (mixture of isomers) [compound 253], the IC50 is not above 50 nM.

Take `Cc1[nH]nc2c1-c1cnc(NC(=O)[C@@H](NC(=O)/C(F)=C\C(C)C)C(C3CC3)C3CC3)cc1CN(C(C)C(F)(F)F)C(=O)C2` (mixture of isomers) [compound 254]: the IC50 is not above 50 nM.

For `Cc1[nH]nc2c1-c1cnc(NC(=O)[C@@H](NC(=O)/C(F)=C\C3CC3)C(C3CC3)C3CC3)cc1CN(C(C)C(F)(F)F)C(=O)C2` (mixture of isomers) [compound 255], the IC50 was not above 50 nM.

As for `CC(C)=C(F)C(=O)N[C@H](C(=O)Nc1cc2c(cn1)-c1c(n[nH]c1C)CC(=O)N(C(C)C(F)(F)F)C2)C(C1CC1)C1CC1` (mixture of isomers) [compound 256], the 50% inhibitory concentration (IC50) is not above 50 nM.

In the case of `C=C(F)C(=O)N[C@H](C(=O)Nc1cc2c(cn1)-c1c(n[nH]c1C)CC(=O)N(C(C)C(F)(F)F)C2)C(C1CC1)C1CC1` (mixture of isomers) [compound 257], the IC50 was not above 50 nM.

Turning to `CCn1nccc1C(=O)NC(C(=O)Nc1cc2c(cc1F)-c1c(n[nH]c1C)CCOC2)C1CCC(F)(F)CC1` (single isomer, unassigned) [compound 37a], the IC50 is not above 50 nM.

On to `Cc1[nH]nc2c1-c1cc(F)c(NC(=O)C(NC(=O)c3ccnn3C(C)C)C3CCC(F)(F)CC3)cc1COCC2` (single isomer, unassigned) [compound 38a], for which the half-inhibitory concentration (IC50) is not above 50 nM.

Turning to `Cc1[nH]nc2c1-c1cc(F)c(NC(=O)[C@@H](NC(=O)c3ccnn3C(C)C[S+](C)[O-])C(C3CC3)C3CC3)cc1COCC2` (single isomer, unassigned) [compound 43a], the half-inhibitory concentration (IC50) was in the range of 50 to 150 nM.

As to `Cc1[nH]nc2c1-c1cc(F)c(NC(=O)[C@@H](NC(=O)c3ccnn3C(C)C[S+](C)[O-])C(C3CC3)C3CC3)cc1COCC2` (single isomer, unassigned) [compound 43b], the IC50 is 50 to 150 nM.

In the case of `Cc1nonc1C(=O)N[C@H](C(=O)Nc1ccc2c(c1)COCCc1n[nH]c(C)c1-2)C(C1CC1)C1CC1` [compound 4], the IC50 is not above 50 nM.

On to `CCc1nonc1C(=O)N[C@H](C(=O)Nc1ccc2c(c1)COCCc1n[nH]c(C)c1-2)C(C1CC1)C1CC1` [compound 5], for which the half-inhibitory concentration (IC50) is not above 50 nM.

With `CCn1nccc1C(=O)N[C@H](C(=O)Nc1ccc2c(c1)CCOCc1n[nH]c(C)c1-2)C(C1CC1)C1CC1` [compound 14], the IC50 fell in the range of 50 to 150 nM.

On to `[2H]C([2H])([2H])n1nccc1C(=O)N[C@H](C(=O)Nc1cc2c(cc1F)-c1c(n[nH]c1C)CCOC2)C(C1CC1)C1CC1` [compound 18], for which the half-inhibitory concentration (IC50) fell in the range of 50 to 150 nM.

On to `Cc1nonc1C(=O)N[C@H](C(=O)Nc1cc2c(cc1F)-c1c(n[nH]c1C)CCOC2)C(C1CC1)C1CC1` [compound 20], for which the IC50 is not above 50 nM.

For `CCc1nonc1C(=O)N[C@H](C(=O)Nc1cc2c(cc1F)-c1c(n[nH]c1C)CCOC2)C(C1CC1)C1CC1` [compound 21], the IC50 was not above 50 nM.

As for `CCn1nccc1C(=O)N[C@H](C(=O)Nc1cc2c(cc1Cl)-c1c[nH]nc1CCOC2)C(C1CC1)C1CC1` [compound 30], the IC50 is 50 to 150 nM.

With `Cn1nccc1C(=O)N[C@H](C(=O)Nc1cc2c(cc1Cl)-c1c[nH]nc1CCOC2)C(C1CC1)C1CC1` [compound 31], the IC50 is 150 to 1000 nM.

For `Cc1[nH]nc2c1-c1cc(F)c(NC(=O)[C@@H](NC(=O)c3ccnn3[C@@H](C)CO)[C@H]3CC[C@H](C)CC3)cc1COCC2` [compound 47], the IC50 was not above 50 nM.

Regarding `Cc1[nH]nc2c1-c1cc(F)c(NC(=O)[C@@H](NC(=O)c3ccnn3[C@@H](C)CO)C3CCCCC3)cc1COCC2` [compound 50], the IC50 fell in the range of 50 to 150 nM.

Consider `Cc1[nH]nc2c1-c1ccc(NC(=O)[C@@H](NC(=O)c3ccnn3[C@@H](C)CO)C(C3CC3)C3CC3)cc1COCC2` [compound 51], for which the IC50 was not above 50 nM.

In the case of `Cc1[nH]nc2c1-c1cc(F)c(NC(=O)[C@@H](NC(=O)c3ccnn3[C@@H](C)CO)C(C3CC3)C3CC3)cc1COCC2` [compound 55], the IC50 is not above 50 nM.

On to `Cc1[nH]nc2c1-c1cc(F)c(NC(=O)[C@@H](NC(=O)c3ccnn3CCCO)C(C3CC3)C3CC3)cc1COCC2` [compound 56], for which the IC50 is not above 50 nM.

As for `Cc1[nH]nc2c1-c1cc(F)c(NC(=O)[C@@H](NC(=O)c3ccnn3CCS(C)(=O)=O)C(C3CC3)C3CC3)cc1COCC2` [compound 63], the IC50 is not above 50 nM.

Take `Cc1[nH]nc2c1-c1cc(F)c(NC(=O)[C@@H](NC(=O)c3ccnn3C3CCC3)C(C3CC3)C3CC3)cc1COCC2` [compound 72]: the IC50 was not above 50 nM.

As to `Cc1[nH]nc2c1-c1cc(F)c(NC(=O)[C@@H](NC(=O)c3ccnn3[C@H]3CCOC3)C(C3CC3)C3CC3)cc1COCC2` [compound 73], the IC50 lay in the range of 50 to 150 nM.

With `Cc1[nH]nc2c1-c1cc(F)c(NC(=O)[C@@H](NC(=O)c3ccnn3C3CCOCC3)C(C3CC3)C3CC3)cc1COCC2` [compound 74], the IC50 lay within 50 to 150 nM.

With `Cc1[nH]nc2c1-c1cc(F)c(NC(=O)[C@@H](NC(=O)c3ccnn3CC(C)(C)C#N)C(C3CC3)C3CC3)cc1COCC2` [compound 77], the IC50 was 50 to 150 nM.

On to `CO[C@@H](C)Cn1nccc1C(=O)N[C@H](C(=O)Nc1cc2c(cc1F)-c1c(n[nH]c1C)CCOC2)C(C1CC1)C1CC1` [compound 78], for which the IC50 is not above 50 nM.

For `Cc1[nH]nc2c1-c1cc(F)c(NC(=O)[C@@H](NC(=O)c3ccnn3C(F)F)C(C3CC3)C3CC3)cc1COCC2` [compound 83], the 50% inhibitory concentration (IC50) is 50 to 150 nM.
